In patent US20080194556A1, “Quinazolines and Their Use as Aurora Kinase Inhibitors” (ASTRAZENECA AB, priority 2005, published 2008) one finds IC50 data, which are given here for three compounds.

One experiment concerns the target T1, aurora B-INCENP enzyme (Homo sapiens, UniProt Q96GD4).
T1 construct: 6-histidine; purchased Upstate
Description: In vitro aurora B kinase inhibition test. The conditions noted are these: 33P incorporation into peptide substrate, 60 minutes at room temperature, read-out: IC50 (50% inhibition of enzyme activity), aurora B kinase. It is filed as biochemical. The text has this: (b) In Vitro Aurora B Kinase Inhibition Test
This assay determines the ability of a test compound to inhibit serine-threonine kinase activity. DNA encoding aurora B may be obtained by total gene synthesis or by cloning. This DNA may then be expressed in a suitable expression system to obtain polypeptide with serine-threonine kinase activity. In the case of aurora B, the coding sequence was isolated from cDNA by polymerase chain reaction (PCR) and cloned into the pFastBac system in a manner similar to that described above for aurora A (i.e. to direct expression of a 6-histidine tagged aurora B protein).
For the large scale expression of aurora B kinase activity, Sf21 insect cells were grown at 28° C. in TC100 medium supplemented with 10% foetal calf serum (Viralex) and 0.2% F68 Pluronic (Sigma) on a Wheaton roller rig at 3 r.p.m. When the cell density reached 1.2×10^6 cells ml^−1 they were infected with plaque-pure aurora B recombinant virus at a multiplicity of infection of 1 and harvested 48 hours later. All subsequent purification steps were performed at 4° C. Frozen insect cell pellets containing a total of 2.0×10^8 cells were thawed and diluted with lysis buffer (50 mM HEPES (N-[2-hydroxyethyl]piperazine-N′-[2-ethanesulphonic acid]) pH7.5 at 4° C., 1 mM Na3VO4, 1 mM PMSF (phenylmethylsulphonyl fluoride), 1 mM dithiothreitol, 1 μg/ml aprotinin, 1 μg/ml pepstatin, 1 μg/ml leupeptin), using 1.0 ml per 2×10^7 cells. Lysis was achieved using a sonication homogeniser, following which the lysate was centrifuged at 41,000 g for 35 minutes. Aspirated supernatant was pumped onto a 5 mm diameter chromatography column containing 1.0 ml CM sepharose Fast Flow (Amersham Pharmacia Biotech) which had been equilibrated in lysis buffer. A baseline level of UV absorbance for the eluent was reached after washing the column with 12 ml of lysis buffer followed by 7 ml of wash buffer (50 mM HEPES pH7.4 at 4° C., 1 mM dithiothreitol). […]

Experiment [1] concerns SW620 human colon tumour cells. The experiment in a line: In vitro cell phenotype and substrate phosphorylation assay (phosphohistone H3 levels). In kind it is cell-based. To be noted: SW-620, 24 hours of treatment, read-out: IC50 (inhibition of phosphohistone H3 levels). On the procedure:
(c) In Vitro Cell Phenotype and Substrate Phosphorylation Assay
This assay is used to determine the cellular effects of compounds on SW620 human colon tumour cells in vitro. Compounds typically cause inhibition of levels of phosphohistone H3 and an increase in the nuclear area of the cells.
10^4 SW620 cells per well were plated in 100 μl DMEM media (containing 10% FCS and 1% glutamine) (DMEM is Dulbecco's Modified Eagle's Medium (Sigma D6546)) in costar 96 well plates and left overnight at 37° C. and 5% CO2 to adhere. The cells were then dosed with compound diluted in media (50 μl is added to each well to give 0.00015μ-1 μM concentrations of compound) and after 24 hours of treatment with compound, the cells were fixed.
The cells were first examined using a light microscope and any cellular changes in morphology were noted. 100 μl of 3.7% formaldehyde was then added to each well, and the plate was left for at least 30 minutes at room temperature. Decanting and tapping the plate on a paper towel removed the fixative and plates were then washed once in PBS (Dulbecco's Phosphate Buffered Saline (Sigma D8537)) using an automated plate washer. 100 μl PBS and 0.5% triton X-100 was added and the plates were put on a shaker for 5 minutes. The plates were washed in 100 μl PBS and solution tipped off. 50 μl of primary antibody, 1:500 rabbit anti-phosphohistone H3 in PBS 1% BSA (bovine serum albumin) and 0.5% tween, was added. Anti-phosphohistone H3 rabbit polyclonal 06-750 was purchased from Upstate Biotechnology. The plates were left 1 hour at room temperature on a shaker.
The next day, the antibody was tipped off and the plates were washed twice with PBS. In an unlit area, 50 μl of secondary antibody, 1:10,000 Hoechst and 1:200 Alexa Fluor 488 goat anti rabbit IgGA (cat no. 11008 molecular probes) in PBS 1% BSA, 0.5% tween was added. The plates were wrapped in tin foil and shaken for 1 hour at room temperature. The antibody was tipped off and plates were washed twice with PBS. […] 100 μl PBS was added to each well and the plates were sealed ready to analyse. […]

Experiment [2] relates to drug-resistant MCF7-ADR human breast tumour cells. Description: In vitro drug-resistant cell phenotype and substrate phosphorylation assay (phosphohistone H3 levels). It is filed as cell-based. To be noted: NCI/ADR-RES, 24 hours of treatment, read-out: IC50 (inhibition of phosphohistone H3 levels). The method, then:
(d) In Vitro Drug-Resistant Cell Phenotype and Substrate Phosphorylation Assay.
This assay is used to determine the cellular effects of compounds on drug-resistant MCF7-ADR human breast tumour cells in vitro.
Compounds typically cause inhibition of levels of phosphohistoneH3 and an increase in the nuclear area of treated cells.
0.8×10^4 MCF7-ADR cells per well were plated in 100 μl DMEM media (containing 10% FCS (foetal calf serum) and 1% glutamine) in costar 96 well plates and left overnight at 37° C. and 5% CO2 to adhere.
All other procedures are identical to those for the above assay using SW620 cells.
The compounds of the invention generally have EC50 values for inhibition of phosphohistone H3 levels of 0.5 nM to 0.1 μM.

T1 sequence (Q96GD4 whole entry): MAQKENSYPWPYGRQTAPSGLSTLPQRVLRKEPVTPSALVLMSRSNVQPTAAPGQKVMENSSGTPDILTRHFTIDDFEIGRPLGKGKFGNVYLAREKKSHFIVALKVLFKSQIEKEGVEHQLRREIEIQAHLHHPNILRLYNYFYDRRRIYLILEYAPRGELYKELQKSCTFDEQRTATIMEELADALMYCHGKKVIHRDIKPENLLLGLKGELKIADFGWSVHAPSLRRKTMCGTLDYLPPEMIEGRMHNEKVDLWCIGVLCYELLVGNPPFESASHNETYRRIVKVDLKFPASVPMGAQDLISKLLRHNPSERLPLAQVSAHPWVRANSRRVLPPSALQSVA
T1 sequence (Q9NQS7 826-918 partner): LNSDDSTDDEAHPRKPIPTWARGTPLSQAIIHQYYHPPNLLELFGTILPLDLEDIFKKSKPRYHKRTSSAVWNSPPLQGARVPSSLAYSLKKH

As usually defined, the IC50 is the concentration needed to halve the response being measured. On to `CCOc1cc(OC[C@H]2CCCN2C)c2c(Nc3cnn(CC(=O)Nc4cccc(F)c4F)c3)ncnc2c1` [Compound 1, N-(2,3-difluorophenyl)-2-{4-[(7-ethoxy-5-{[(2R)-1-methylpyrrolidin-2-yl]methoxy}quinazolin-4-yl)amino]-1H-pyrazol-1-yl}acetamide], for which the concentration for half-maximal inhibition (IC50) at aurora B-INCENP enzyme was 0.5 nM; in experiment [1] it was 5.5 nM; in experiment [2], 17 nM.
The matching figures for `CCOc1cc(OC[C@H]2CCCN2)c2c(Nc3cnn(CC(=O)Nc4cccc(F)c4F)c3)ncnc2c1` [Compound 2, N-(2,3-difluorophenyl)-2-[4-({7-ethoxy-5-[(2R)-pyrrolidin-2-ylmethoxy]quinazolin-4-yl}amino)-1H-pyrazol-1-yl]acetamide]: 0.5 nM, 2 nM and 20 nM.
As to `CCOc1cc(OC[C@H]2COCCN2)c2c(Nc3cnn(CC(=O)Nc4cccc(F)c4F)c3)ncnc2c1` [Compound 3, N-(2,3-difluorophenyl)-2-[4-({7-ethoxy-5-[(3R)-morpholin-3-ylmethoxy]quinazolin-4-yl}amino)-1H-pyrazol-1-yl]acetamide], the results for the IC50 (on aurora B-INCENP enzyme; in experiment [1]; in experiment [2]) were 0.1 nM, 2 nM and 4 nM, respectively.
